Source: EPA's ToxValDB 9.5

Tested on: Rattus norvegicus
Conditions: short-term, duration: 28 days, oral, gavage, Sprague-Dawley

O=S(=O)(O)C(F)(F)C(F)(F)C(F)(F)C(F)(F)C(F)(F)C(F)(F)C(F)(F)C(F)(F)F [Perfluorooctanesulfonic acid]
LOEL (F, Nonneoplastic effects_Liver - Hepatocyte, hypertrophy): 1.25 mg/kg-day | NOEL (F, Nonneoplastic effects_Liver - Hepatocyte, vacuolization cytoplasmic): 5 mg/kg-day | NOEL (F, Nonneoplastic effects_Liver - Necrosis): 5 mg/kg-day | NOEL (F, Nonneoplastic effects_Nose - Olfactory epithelium, degeneration): 5 mg/kg-day | NOEL (F, Nonneoplastic effects_Nose - Olfactory epithelium, hyperplasia): 5 mg/kg-day | NOEL (F, Nonneoplastic effects_Nose - Olfactory epithelium, inflammation, suppurative): 5 mg/kg-day | NOEL (F, Nonneoplastic effects_Nose - Olfactory epithelium, necrosis): 5 mg/kg-day | LOEL (F, Nonneoplastic effects_Spleen - Extramedullary hematopoiesis, decreased): 1.25 mg/kg-day | NOEL (F, Nonneoplastic effects_Stomach, forestomach - Epithelium, hyperplasia): 5 mg/kg-day | NOEL (F, Nonneoplastic effects_Thymus - Atrophy): 5 mg/kg-day | LOEL (F, Organ weights_Heart - Absolute): 5 mg/kg-day | LOEL (F, Organ weights_Heart - Relative): 5 mg/kg-day | LOEL (F, Organ weights_Liver - Absolute): 0.312 mg/kg-day | LOEL (F, Organ weights_Liver - Relative): 0.312 mg/kg-day | NOEL (F, Organ weights_Lung - Absolute): 5 mg/kg-day | LOEL (F, Organ weights_Lung - Relative): 1.25 mg/kg-day | NOEL (F, Organ weights_R. adrenal gland - Absolute): 5 mg/kg-day | NOEL (F, Organ weights_R. adrenal gland - Relative): 5 mg/kg-day | NOEL (F, Organ weights_R. kidney - Absolute): 5 mg/kg-day | NOEL (F, Organ weights_R. kidney - Relative): 5 mg/kg-day | NOEL (F, Organ weights_Spleen - Absolute): 5 mg/kg-day | NOEL (F, Organ weights_Spleen - Relative): 5 mg/kg-day | LOEL (F, Organ weights_Thymus - Absolute): 1.25 mg/kg-day | NOEL (F, Organ weights_Thymus - Relative): 5 mg/kg-day | NOEL (F, Survival rates): 5 mg/kg-day | LOEL (M, Clinical chemistry_Alanine aminotransferase): 0.625 mg/kg-day | LOEL (M, Clinical chemistry_Albumin): 5 mg/kg-day | LOEL (M, Clinical chemistry_Albumin/globulin ratio): 5 mg/kg-day | LOEL (M, Clinical chemistry_Alkaline phosphatase): 0.625 mg/kg-day | LOEL (M, Clinical chemistry_Aspartate aminotransferase): 0.625 mg/kg-day | LOEL (M, Clinical chemistry_Cholesterol): 0.312 mg/kg-day | LOEL (M, Clinical chemistry_Direct bilirubin): 5 mg/kg-day | LOEL (M, Clinical chemistry_Free thyroxine): 0.312 mg/kg-day | LOEL (M, Clinical chemistry_Globulin): 5 mg/kg-day | NOEL (M, Clinical chemistry_Sorbitol dehydrogenase): 5 mg/kg-day | NOEL (M, Clinical chemistry_Testosterone): 5 mg/kg-day | NOEL (M, Clinical chemistry_Thyroid stimulating hormone): 5 mg/kg-day | LOEL (M, Clinical chemistry_Total bile acids): 5 mg/kg-day | NOEL (M, Clinical chemistry_Total bilirubin): 5 mg/kg-day | NOEL (M, Clinical chemistry_Total protein): 5 mg/kg-day | LOEL (M, Clinical chemistry_Total thyroxine): 0.312 mg/kg-day | LOEL (M, Clinical chemistry_Total triiodothyronine): 0.625 mg/kg-day | LOEL (M, Clinical chemistry_Triglycerides): 5 mg/kg-day | LOEL (M, Gene expression_Acox1): 1.25 mg/kg-day | LOEL (M, Gene expression_Acyl-CoA oxidase): 2.5 mg/kg-day | LOEL (M, Gene expression_Cyp2b1): 0.312 mg/kg-day | LOEL (M, Gene expression_Cyp2b2): 0.312 mg/kg-day | LOEL (M, Gene expression_Cyp4a1): 0.312 mg/kg-day | NOEL (M, Hematology_Erythrocytes): 5 mg/kg-day | NOEL (M, Hematology_Hematocrit): 5 mg/kg-day | NOEL (M, Hematology_Hemoglobin): 5 mg/kg-day | LOEL (M, Hematology_Leukocytes): 5 mg/kg-day | LOEL (M, Hematology_Reticulocytes): 2.5 mg/kg-day | LOEL (M, Hematology_S. neutrophils): 5 mg/kg-day | LOEL (M, Nonneoplastic effects_Bone marrow - Hypocellularity): 1.25 mg/kg-day | NOEL (M, Nonneoplastic effects_Kidney - Papilla, necrosis): 5 mg/kg-day | NOEL (M, Nonneoplastic effects_Liver - Hepatocyte, cytoplasmic alteration): 5 mg/kg-day | LOEL (M, Nonneoplastic effects_Liver - Hepatocyte, hypertrophy): 1.25 mg/kg-day | LOEL (M, Nonneoplastic effects_Liver - Hepatocyte, vacuolization cytoplasmic): 2.5 mg/kg-day | NOEL (M, Nonneoplastic effects_Liver - Necrosis): 5 mg/kg-day | NOEL (M, Nonneoplastic effects_Nose - Olfactory epithelium, degeneration): 5 mg/kg-day | NOEL (M, Nonneoplastic effects_Nose - Olfactory epithelium, hyperplasia): 5 mg/kg-day | NOEL (M, Nonneoplastic effects_Nose - Olfactory epithelium, inflammation, suppurative): 5 mg/kg-day | NOEL (M, Nonneoplastic effects_Nose - Olfactory epithelium, necrosis): 5 mg/kg-day | LOEL (M, Nonneoplastic effects_Spleen - Extramedullary hematopoiesis, decreased): 1.25 mg/kg-day | NOEL (M, Nonneoplastic effects_Stomach, forestomach - Epithelium, hyperplasia): 5 mg/kg-day | NOEL (M, Nonneoplastic effects_Thymus - Atrophy): 5 mg/kg-day | LOEL (M, Organ weights_Heart - Absolute): 5 mg/kg-day | NOEL (M, Organ weights_Heart - Relative): 5 mg/kg-day | LOEL (M, Organ weights_Liver - Absolute): 0.312 mg/kg-day | LOEL (M, Organ weights_Liver - Relative): 0.312 mg/kg-day | NOEL (M, Organ weights_Lung - Absolute): 5 mg/kg-day | NOEL (M, Organ weights_Lung - Relative): 5 mg/kg-day | LOEL (M, Organ weights_R. adrenal gland - Absolute): 1.25 mg/kg-day | NOEL (M, Organ weights_R. adrenal gland - Relative): 5 mg/kg-day | NOEL (M, Organ weights_R. kidney - Absolute): 5 mg/kg-day | NOEL (M, Organ weights_R. kidney - Relative): 5 mg/kg-day | LOEL (M, Organ weights_Spleen - Absolute): 1.25 mg/kg-day | NOEL (M, Organ weights_Spleen - Relative): 5 mg/kg-day | LOEL (M, Organ weights_Thymus - Absolute): 5 mg/kg-day | LOEL (M, Organ weights_Thymus - Relative): 5 mg/kg-day | NOEL (M, Reproductive toxicity_Altered sperm parameters): 5 mg/kg-day | NOEL (M, Survival rates): 5 mg/kg-day
